Results published in patent publication US11912719B2, “Substituted isoquinolines as rock kinase inhibitors” (Cervello Therapeutics LLC, priority 2018, dated 2024).

Tests used:
Assay type in all cases: biochemical
[1] = biological target: T1, human ROCK1 catalytic domain (Homo sapiens, UniProt Q13464); experiment: fluorescence coupling (TR-FRET) enzymatic assay, ROCK1; conditions: 4 nM enzyme, 4 μM ATP, 50 nM Ulight-CREBTide, one hour room temperature; read-out: ROCK1 IC50
T1 construct: GST; purchased Carna BioSciences 01-109
Protocol: (§1) Briefly, compounds of the present invention were solubilized in DMSO and a series of 12, three-fold serial dilutions were made for each compound in 2.5% DMSO. The initial starting concentration for the serial dilutions of each compound was 10 μM or 100 μM. Control samples lacking compound, ROCK enzyme or ATP also were prepared and processed in parallel with compound test samples.
The reaction mixtures were incubated at room temperature for one hour. After one hour, the reaction was stopped by the addition of a 10 solution of an Europium-labelled phospho-CREB (Ser133) antibody (Perkin Elmer, Catalog #TRF0200) in LANCE buffer supplemented with 20 mM EDTA. The stopped reaction mixtures were incubated at room temperature for 90 minutes. […] The ICso value for each compound was determined from each dose-response curve using GraphPad Prism 7 software with a sigmodial dose response.

[2] = biological target: T2, cGMP-dependent protein kinase 1 (PKG or PRKG1) (Homo sapiens, UniProt Q13976); experiment: fluorescence coupling (TR-FRET) enzymatic assay, PKG off-target control; conditions: 8 nM enzyme, 30 μM ATP, 50 nM Ulight-CREBTide, one hour room temperature
T2 construct: GST; purchased Carna BioSciences 01-142
T2 sequence (Q13976 1-686 isoform Q13976-2): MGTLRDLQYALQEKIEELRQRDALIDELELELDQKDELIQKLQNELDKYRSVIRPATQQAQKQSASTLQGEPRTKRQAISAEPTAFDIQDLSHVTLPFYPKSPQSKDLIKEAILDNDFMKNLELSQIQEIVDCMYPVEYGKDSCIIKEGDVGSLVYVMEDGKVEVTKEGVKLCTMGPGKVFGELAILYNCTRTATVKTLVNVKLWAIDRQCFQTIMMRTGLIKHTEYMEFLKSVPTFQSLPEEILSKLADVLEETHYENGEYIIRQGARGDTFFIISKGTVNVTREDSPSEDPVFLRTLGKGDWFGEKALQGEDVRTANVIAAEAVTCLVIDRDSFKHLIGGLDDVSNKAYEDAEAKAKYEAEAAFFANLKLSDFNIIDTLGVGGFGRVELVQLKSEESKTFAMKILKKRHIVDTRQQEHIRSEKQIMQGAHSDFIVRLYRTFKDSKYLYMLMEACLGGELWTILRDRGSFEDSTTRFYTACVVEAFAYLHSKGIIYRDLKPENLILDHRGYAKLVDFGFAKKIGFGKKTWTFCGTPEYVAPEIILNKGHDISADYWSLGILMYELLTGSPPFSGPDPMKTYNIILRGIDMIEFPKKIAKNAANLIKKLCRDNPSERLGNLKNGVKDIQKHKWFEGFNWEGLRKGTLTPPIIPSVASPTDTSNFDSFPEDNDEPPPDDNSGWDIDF
Protocol: (§2) Dose-response curves for compounds of the present invention were determined using a fluorescence coupling enzymatic assay using purified C-terminal truncated human ROCK1 catalytic domain (amino acids 1-477 of accession number NP_005397.1) fused to GST (Carna BioSciences, Catalog #01-109) and purified C-terminal truncated human ROCK2 enzyme kinase domain (amino acids 1-553 of accession number NP_004841.2) fused to GST BioSciences, Catalog #01-110). In addition, full length cGMP-dependent protein kinase 1 (PKG or PRKG1; amino acids 1-686 of accession number NP_006249.1) fused to GST (Carna BioSciences, Catalog #01-142), full length PKACα (PRKACA; amino acids 1-351 of accession number NP_002721.1) fused to GST (Carna BioSciences, Catalog #01-127), and C-terminal truncated human AKT1 catalytic domain (amino acids 104-480 of accession number NP_005154.1) fused to GST Biosciences, Catalog #01-101) were used as a control to measure any non-desired off-target kinase activity.
as §1
(§3) A 4 μL aliquot of each serial dilution of test compound diluted in H2O with 2.5% DMSO was added to a well containing 4 μL of 10 nM purified N-truncated ROCK1 (4 nM final concentration), 10 nM purified N-truncated ROCK2 enzyme (4 nM final concentration), 1.25 nM AKT1 (0.5 nM final concentration), 25 pM PKACA (10 pM final concentration) or 20 nM PKG (8 nM final concentration), in reaction buffer containing 50 mM Hepes, pH 7.5, 1 mM EGTA, 10 mM MgCl2, 2 mM DTT, and 0.01% Tween 20 (final concentration). To initiate the enzymatic reaction, 2 μL of a solution was added to each well to provide a final concentration of 50 nM Ulight-CREBTide peptide substrate (Perkin Elmer, Catalog #TRF0107) and 4 μM ATP for ROCK1 and AKT1 assays, […] for ROCK2 assays and 30 μM ATP for PKG assays, or 1 μM ATP for PKACA assays. The reaction mixtures were incubated at room temperature for one hour. After one hour, the reaction was stopped by the addition of a 10 solution of an Europium-labelled phospho-CREB (Ser133) antibody (Perkin Elmer, Catalog #TRF0200) in LANCE buffer supplemented with 20 mM EDTA. The stopped reaction mixtures were incubated at room temperature for 90 minutes. The TR-FRET 665/620 ratios were determined using a Clariostar monochromator plate reader instrument (BMG LabTech) in accordance with the manufacturer's instructions. The ICso value for each compound was determined from each dose-response curve using GraphPad Prism 7 software with a sigmodial dose response. Key: A is IC50≤100 nM; B is 100 nM<IC50<1000 nM; C is 1,000<IC50≤10,000 nM; D is IC50>10,000 nM

[3] = biological target: T3, human AKT1 catalytic domain (Homo sapiens, UniProt P31749); experiment: fluorescence coupling (TR-FRET) enzymatic assay, AKT1 off-target control; conditions: 0.5 nM enzyme, 4 μM ATP, 50 nM Ulight-CREBTide, one hour room temperature
T3 construct: GST; purchased Carna BioSciences 01-101
Protocol: as §2, §1, §3

[4] = biological target: T4, human ROCK2 enzyme kinase domain (Homo sapiens, UniProt O75116); experiment: fluorescence coupling (TR-FRET) enzymatic assay, ROCK2; conditions: 4 nM enzyme, 50 nM Ulight-CREBTide, one hour room temperature
T4 construct: GST; purchased Carna BioSciences 01-110
Protocol: as §2, §1, §3

PKACα (PRKACA) = biological target: T5, PKACα (PRKACA) (Homo sapiens, UniProt P17612); experiment: fluorescence coupling (TR-FRET) enzymatic assay, PKACA off-target control; conditions: 10 pM enzyme, 1 μM ATP, 50 nM Ulight-CREBTide, one hour room temperature
T5 construct: GST; purchased Carna BioSciences 01-127
Protocol: as §2, §1, §3

T4 sequence (O75116 1-553): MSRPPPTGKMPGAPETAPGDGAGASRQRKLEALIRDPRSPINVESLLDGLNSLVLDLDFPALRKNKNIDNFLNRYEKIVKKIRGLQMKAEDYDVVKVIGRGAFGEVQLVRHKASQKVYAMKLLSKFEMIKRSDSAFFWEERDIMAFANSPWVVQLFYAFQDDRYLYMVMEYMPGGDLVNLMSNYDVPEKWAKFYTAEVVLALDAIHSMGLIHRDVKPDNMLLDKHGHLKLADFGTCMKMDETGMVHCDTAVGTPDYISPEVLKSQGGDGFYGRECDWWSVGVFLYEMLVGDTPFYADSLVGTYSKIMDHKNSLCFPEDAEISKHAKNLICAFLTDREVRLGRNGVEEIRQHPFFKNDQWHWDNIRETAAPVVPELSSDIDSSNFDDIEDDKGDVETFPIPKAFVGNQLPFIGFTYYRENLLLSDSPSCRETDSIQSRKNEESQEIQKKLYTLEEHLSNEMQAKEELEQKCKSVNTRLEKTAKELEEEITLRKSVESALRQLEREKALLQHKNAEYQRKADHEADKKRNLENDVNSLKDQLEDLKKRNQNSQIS
T1 sequence (Q13464 1-477): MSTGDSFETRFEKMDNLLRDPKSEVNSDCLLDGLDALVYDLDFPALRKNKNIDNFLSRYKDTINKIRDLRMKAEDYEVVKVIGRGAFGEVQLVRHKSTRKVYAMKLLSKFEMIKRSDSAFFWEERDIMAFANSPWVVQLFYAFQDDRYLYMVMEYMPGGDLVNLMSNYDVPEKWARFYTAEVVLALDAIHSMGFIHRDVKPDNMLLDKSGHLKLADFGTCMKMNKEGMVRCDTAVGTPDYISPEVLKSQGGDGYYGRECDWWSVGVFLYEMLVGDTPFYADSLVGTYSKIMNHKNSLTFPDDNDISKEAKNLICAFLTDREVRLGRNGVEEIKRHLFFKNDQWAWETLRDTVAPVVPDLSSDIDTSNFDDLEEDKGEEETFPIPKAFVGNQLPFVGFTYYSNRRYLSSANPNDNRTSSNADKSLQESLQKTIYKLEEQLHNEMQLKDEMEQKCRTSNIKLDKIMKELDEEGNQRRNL
T3 sequence (P31749 104-480): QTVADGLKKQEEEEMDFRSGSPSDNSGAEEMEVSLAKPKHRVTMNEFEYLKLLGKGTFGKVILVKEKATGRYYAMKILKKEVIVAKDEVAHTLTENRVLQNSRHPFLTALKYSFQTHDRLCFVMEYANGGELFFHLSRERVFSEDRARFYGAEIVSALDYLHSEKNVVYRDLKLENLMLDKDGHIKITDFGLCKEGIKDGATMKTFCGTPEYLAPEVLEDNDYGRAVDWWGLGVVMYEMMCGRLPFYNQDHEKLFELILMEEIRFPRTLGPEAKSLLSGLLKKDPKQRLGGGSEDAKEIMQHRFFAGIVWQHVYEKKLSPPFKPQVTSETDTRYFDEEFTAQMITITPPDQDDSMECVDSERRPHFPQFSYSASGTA

SMILES | IC50 [1] [µM] | IC50 [2] [µM] | IC50 [3] [µM] | IC50 [4] [µM] | IC50 (PKACα (PRKACA)) [µM]
O=c1[nH]ccc2c(S(=O)(=O)N3CCc4cc(O)ccc43)cccc12 [Example 2, 5-((5-Hydroxyindolin-1-yl)sulfonyl)isoquinolin-1 (2H)-one] | > 10 | > 10 | > 10 | > 10 | > 10
N#Cc1cc(C2CC2)c2c(c1)N(S(=O)(=O)c1cccc3c(=O)[nH]ccc13)CC2 [Example 17] | 0.1 to 1 | > 10 | > 10 | 0.1 to 1 | > 10
O=c1[nH]ccc2c(S(=O)(=O)N3CCc4ccccc43)cccc12 [Example 3, 5-(Indolin-1-ylsulfonyl)isoquinolin-1 (2H)-one] | 1 to 10 | > 10 | > 10 | 1 to 10 | > 10
O=c1[nH]ccc2c(S(=O)(=O)N3CCc4c(Cl)cc(Cl)cc43)cccc12 [Example 16, 5-((4,6-Dichloroindolin-1-yl)sulfonyl)isoquinolin-1 (2H)-one] | 1 to 10 | > 10 | > 10 | 1 to 10 | > 10
N#Cc1ccc2c(c1)N(S(=O)(=O)c1cc(Cl)cc3c(=O)[nH]ccc13)CC2 [Example 20, 1-((7-Chloro-1-oxo-1,2-dihydroisoquinolin-5-yl)sulfonyl)indoline-6-carbonitrile] | > 10 | > 10 | > 10 | > 10 | > 10
Cc1cc(C#N)cc2c1CCN2S(=O)(=O)c1cccc2c(O)ncc(C)c12 [Example 23, 1-((1-Hydroxy-4-methylisoquinolin-5-yl)sulfonyl)-4-methylindoline-6-carbonitrile] | 0.1 to 1 | > 10 | > 10 | 0.1 to 1 | > 10
CC(C)c1cccc2c1CCN2S(=O)(=O)c1cccc2c(=O)[nH]ccc12 [Example 14, 5-((4-Isopropylindolin-1-yl)sulfonyl)isoquinolin-1 (2H)-one] | > 10 | > 10 | > 10 | > 10 | > 10
Cc1c[nH]c(=O)c2cccc(S(=O)(=O)N3CCc4c(N)cc(C#N)cc43)c12 [Example 33, 4-amino-1-((4-methyl-1-oxo-1,2-dihydroisoquinolin-5-yl)sulfonyl)indoline-6-carbonitrile] | < 0.1 | > 10 | > 10 | < 0.1 | > 10
Cc1cnc(O)c2cccc(S(=O)(=O)N3CCc4ccc(C#N)cc43)c12 [Example 22, 1-((1-Hydroxy-4-methylisoquinolin-5-yl)sulfonyl)indoline-6-carbonitrile] | < 0.1 | > 10 | > 10 | < 0.1 | 1 to 10
O=c1[nH]ccc2c(S(=O)(=O)N3CCc4ccc(F)cc43)cccc12 [Example 5, 5-((6-Fluoroindolin-1-yl)sulfonyl)isoquinolin-1 (2H)-one] | 1 to 10 | > 10 | > 10 | 1 to 10 | > 10
N#Cc1cc2c(cn1)CCN2S(=O)(=O)c1cccc2c(=O)[nH]ccc12 [Example 28, 1-((1-oxo-1,2-dihydroisoquinolin-5-yl)sulfonyl)-2,3-dihydro-1H-pyrrolo[3,2-c]pyridine-6-carbonitrile] | 0.1 to 1 | > 10 | > 10 | 0.1 to 1 | > 10
Cc1ccc2c(c1)N(S(=O)(=O)c1cccc3c(=O)[nH]ccc13)CC2 [Example 6, 5-((6-Methylindolin-1-yl)sulfonyl)isoquinolin-1 (2H)-one] | 1 to 10 | > 10 | > 10 | 0.1 to 1 | > 10
CC(=O)Nc1cc(C#N)cc2c1CCN2S(=O)(=O)c1cccc2c(=O)[nH]cc(C)c12 [Example 32, N-(6-cyano-1-((4-methyl-1-oxo-1,2-dihydroisoquinolin-5-yl)sulfonyl)indolin-4-yl)acetamide] | < 0.1 | 1 to 10 | > 10 | < 0.1 | > 10
O=c1[nH]ccc2c(S(=O)(=O)N3CCc4ccc(Cl)cc43)cc(Cl)cc12 [Example 19, 7-Chloro-5-((6-chloroindolin-1-yl)sulfonyl)isoquinolin-1 (2H)-one] | > 10 | > 10 | > 10 | > 10 | > 10
CCNc1cc(C#N)cc2c1CCN2S(=O)(=O)c1cccc2c(=O)[nH]cc(C)c12 [Example 43, 4-(ethylamino)-1-((4-methyl-1-oxo-1,2-dihydroisoquinolin-5-yl)sulfonyl)indoline-6-carbonitrile] | 1 to 10 | > 10 | > 10 | 0.1 to 1 | > 10
COc1cc(C#N)cc2c1CCN2S(=O)(=O)c1cccc2c(=O)[nH]ccc12 [Example 29, 4-methoxy-1-((1-oxo-1,2-dihydroisoquinolin-5-yl)sulfonyl)indoline-6-carbonitrile] | < 0.1 | > 10 | 1 to 10 | < 0.1 | 1 to 10
Cc1c[nH]c(=O)c2cccc(S(=O)(=O)N3CCc4c(N(C)C)cc(C#N)cc43)c12 [Example 34, 4-(dimethylamino)-1-((4-methyl-1-oxo-1,2-dihydroisoquinolin-5-yl)sulfonyl)indoline-6-carbonitrile] | 1 to 10 | > 10 | > 10 | 1 to 10 | > 10
